{"source": "paper PMC9897792", "about": "“Discovery of novel 2-(4-(benzyloxy)-5-(hydroxyl) phenyl) benzothiazole derivatives as multifunctional MAO-B inhibitors for the treatment of Parkinson’s disease” (Journal of Enzyme Inhibition and Medicinal Chemistry, 2023)", "key": {"[1]": {"test": "Stoichiometry of 3h-Fe^2+ complex by molar ratio method", "type": "physicochemical", "settings": "absorbance at 385 nm; FeSO4 0–187.5 µM; 3h 75 µM in methanol", "procedure": "Because Fe^2+ played a crucial role in the pathogenesis of PD, the stoichiometry of 3h-Fe^2+ complex was further measured by using molar ratio method. 3h was incubated with various concentrations of FeSO4 (0–187.5 µM), and the electronic spectra were detected.\nAs the Fe^2+ played important role in the pathogenetic process of PD, the stoichiometry of 3h-Fe^2+ complex was detected by using molar ratio method. In detail, test compound solution (1.0 ml, 75 µM in methanol) was incubated with Fe^2+ solution (1.0 ml, 7.5–187.5 µM in methanol) at 37 °C for 30 min. Then, the mixture was removed from the vial to a quartz cell, and the absorbance of mixture at 200–800 nm was measured by using UV spectrophotometer (Shimadzu UV-1900i)."}, "[2]": {"system": "ROS release in LPS-treated BV-2 cells", "test": "LPS-induced ROS release in BV-2 cells (DCFH-DA probe)", "type": "cell-based", "settings": "Mus musculus, LPS 1.0 µg/mL, read-out: inhibition rate of LPS-induced ROS release", "procedure": "The inhibitory effect of 3h on LPS-induced ROS release in BV-2 cells in vitro was detected by using 2′,7′-dichlorofluorescein diacetate (DCFH-DA) as probe to quantify the ROS level in LPS-treated BV-2 cells. Noticeably, the fluorescence intensity of control group was relatively low, indicating low level of ROS. […] The fluorescence values were further detected by using microplate reader (Figure 9(B)), and then the inhibition rates were calculated. […] BV-2 cells were incubated with test compound solution (10 µL) for 30 min, then LPS (10 µL, 1.0 µg/ml in PBS) was added to each well, and each well would be incubated for another 30 min at 37 °C. […] The fluorescence was measured with excitation and emission wavelengths at 488 and 525 nm on an inverted fluorescence microscope."}, "MAO-B [3]": {"target": "T1, MAO-B (Homo sapiens, UniProt P27338)", "T1 sequence (P27338 1-520)": "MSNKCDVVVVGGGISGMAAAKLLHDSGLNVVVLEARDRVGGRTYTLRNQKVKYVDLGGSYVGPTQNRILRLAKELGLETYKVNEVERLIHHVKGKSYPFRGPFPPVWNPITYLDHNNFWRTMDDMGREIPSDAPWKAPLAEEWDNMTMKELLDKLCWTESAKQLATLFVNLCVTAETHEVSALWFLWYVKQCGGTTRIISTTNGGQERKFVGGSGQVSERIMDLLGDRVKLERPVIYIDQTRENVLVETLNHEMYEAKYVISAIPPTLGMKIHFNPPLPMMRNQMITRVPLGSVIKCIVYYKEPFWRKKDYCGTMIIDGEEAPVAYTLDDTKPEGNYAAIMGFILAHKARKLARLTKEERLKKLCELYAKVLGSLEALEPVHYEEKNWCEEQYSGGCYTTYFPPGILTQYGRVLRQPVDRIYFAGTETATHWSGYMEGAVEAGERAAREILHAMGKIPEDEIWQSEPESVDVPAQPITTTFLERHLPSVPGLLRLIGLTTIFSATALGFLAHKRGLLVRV", "test": "Kinetic study of MAO-B inhibition (Lineweaver-Burk plots)", "type": "biochemical", "procedure": "Kinetic study[35]^,[36] was conducted to figure out the MAO-B inhibitory mechanism of 2-(4-(benzyloxy)-5-(hydroxyl) phenyl) benzothiazole derivatives, with 3h as the test compound. […] The graphical of the reciprocal Lineweaver-Burk plots was depicted in Figure 2(A).\nThe kinetic study of 3h was conducted by the method which is similar with the inhibition experiment of MAOs. Different concentrations of 3h (0.124, 0.062, and 0.031 µM) and kynuramine (15, 30, 60, and 90 µM) solutions were selected. The control experiment was performed without 3h. The method of data analysis has been described previously."}, "[4]": {"test": "Metal-chelating study by UV spectra", "type": "physicochemical", "settings": "75.0 μM in methanol; shifted from 335.5 nm", "procedure": "Particularly, after the addition of FeSO4, maximum increase in absorption was detected. Besides, after the addition of CuCl2, maximum absorption peak shifted from 335.5 to 382.0 nm.\nUV spectrum method was conducted to clarify the metal chelating ability of 2-(4-(benzyloxy)-5-(hydroxyl) phenyl) benzothiazole derivatives. Test compound solution (1.0 ml, 75 µM in methanol) and metal ion solution (1.0 ml, 75 µM in methanol) were added to a vial. The vial was placed at room temperature for 2 h. Then, the mixture was removed from the vial to a quartz cell. After transfer, the absorbance of the mixture at 200–800 nm was measured by using UV spectrophotometer (Shimadzu UV-1900i)."}, "[5]": {"system": "NO release in LPS-activated BV-2 microglia cells", "test": "LPS-induced NO release in BV-2 cells (Griess method)", "type": "cell-based", "settings": "Mus musculus, LPS 1.0 µg/mL, read-out: inhibitory rate of LPS-induced NO release", "procedure": "Then, Griess method was performed to measure the inhibitory effect of 3h on LPS-induced NO release in BV-2 cells. […] It reflected that LPS could induce the activation of BV-2 cells and induce neuroinflammation.\nELISA and Griess reaction methods were performed to detect the inhibitory effect of 3h on the release of TNF-α and NO in LPS-stimulated BV-2 cells[46]^,[47]. BV-2 cells in the logarithmic phase were seeded into 96-well cell culture plate, and these cells were incubated at 37 °C for 24 h at the atmosphere of 5% CO2. After incubation, the culture solution was replaced by fresh one (90 µL without serum), and test compound solution (10 µL) was added. After addition, the plate was incubated for 30 min, then LPS (10 µL, 1.0 µg/ml in PBS) was added to each well, and the mixture would be incubated for another 24 h at 37 °C. After the final incubation, the supernatants were taken out to measure the level of TNF-α and NO according to the procedures depicted on the kits (kits were purchased from Nanjing Jiancheng Bioengineering Institute)."}, "MAO-B [6]": {"target": "T1, MAO-B", "test": "MAO-B inhibition, kynuramine method", "type": "biochemical"}}}
{"smiles": "Oc1cc(OCc2ccc(F)cc2)ccc1-c1nc2ccccc2s1", "note": "[3h, 2-(Benzo[d]thiazol-2-yl)-5-((4-fluorobenzyl)oxy)phenol]", "values": [{"measurement": "molar ratio at intersection of straight lines (molar ratio method)", "setting": "[1]", "value": 1.65}, {"measurement": "inhibition at […]", "setting": "[2]; 2.5 µM", "value": 19.8, "unit": "%"}, {"measurement": "inhibition at 10 µM", "setting": "[2]; 10.0 µM", "value": 78, "unit": "%"}, {"measurement": "MAO-B inhibition pattern", "setting": "MAO-B [3]; Lineweaver-Burk plots", "value": "competitive"}, {"measurement": "Ki", "setting": "MAO-B [3]; from slopes of Lineweaver-Burk plots vs. inhibitor concentration, kynuramine substrate, read-out: competitive inhibition constant (Ki)", "value": 0.102, "unit": "µM"}, {"measurement": "maximum absorption peak after the addition of CuCl2", "setting": "[4]", "value": 382.0, "unit": "nm"}, {"measurement": "inhibition at 0.5 µM", "setting": "[5]; 0.5 µM", "value": 15.8, "unit": "%"}, {"measurement": "inhibition at […]", "setting": "[5]; 2.5 µM", "value": 35.8, "unit": "%"}, {"measurement": "inhibition at 10 µM", "setting": "[5]; 10.0 µM", "value": 63.7, "unit": "%"}, {"measurement": "IC50", "setting": "MAO-B [6]", "value": "0.062 ± 0.005", "unit": "µM"}]}
